We go through four molecules from patent US8796292B2, “Selective antibacterials for clostridium difficile infections” (GLSynthesis Inc., priority 2009, dated 2014).

Converted amounts (≈) assume the structure as drawn. Read-outs that look alike come from different tables or passages of the source.

In general, MIC refers to the smallest concentration in the dilution series that meets the test's criterion for growth inhibition.

Holding throughout (experiment): agar dilution MIC assay of anaerobic bacteria
Background: In agar dilution the substance is mixed into plates at graded concentrations.

The subject of one assay is L. casei. In kind it is cell-based, Lactobacillus casei. The following applies: Lacticaseibacillus casei. The method, then:
(§1) Each compound was assayed against a panel of anaerobic bacteria in culture, consisting of Gram-positive organisms, such as Lactobacilli, Bifidobacteria, Clostridium spp., and Gram-negative bacteria, such as […] fragilis spp., according to guidelines of the Clinical and Laboratory Standards Institute (CLSI document M11-A7, CLSI, Wayne, Pa., 2007). […] One tenth mL of diluted bacteria containing 500-1000 colony-forming units (CFU) was plated and spread, and the plates incubated at 37° C. for 24-48 hours. MIC (minimum inhibitory concentration) is equivalent to the lowest concentration in μg/ml at which growth, i.e., colony formation, is not observed. […] Bacteria were assayed using a reference agar dilution method. Drug dilutions and drug-supplemented agar plates were prepared manually. The test organisms were maintained frozen at −80° C. The isolates were sub-cultured on Supplemented Brucella Agar (SBA) plates in a Bactron II anaerobic chamber and incubated for 48 hours at 35-36° C. in the Bactron II anaerobe chamber. Following inoculation, the drug-supplemented plates were incubated at 35° C. for 48 hours in the anaerobic environment (5% hydrogen, 5% carbon dioxide, 90% nitrogen) of the Bactron II. The MIC in μg/ml was read per Clinical and Laboratory Standards Institute guidelines.

In a further assay the test system is Ba. fragilis. It is filed as cell-based. The following applies: Bacteroides fragilis. The method, then:
as §1

A further assay has as its system L. acidophilus. It is filed as cell-based. The following applies: Lactobacillus acidophilus. The protocol:
as §1

For the next assay, the system named is Bi. brevi. It is filed as cell-based, Bifidobacterium brevi. The method, then:
as §1

A further assay deals with Bi. longum. It is filed as cell-based, Bifidobacterium longum. The following applies: Bifidobacterium longum, read-out: MIC. The protocol: as §1
A further assay has as its system E. lentum. It is filed as cell-based, Eubacterium lentum. The following applies: Eggerthella lenta, read-out: MIC. The protocol:
as §1

A further assay relates to C. difficile. In kind it is cell-based, Clostridium difficile. The following applies: for MIC: Clostridioides difficile, read-out: MIC. The method, then: as §1
The mark [1] stands for this setting: Strain no. 1722 (ATCC strain), Table 3.
Where [2] appears, read: B. fragilis, Strain no. 0123 (ATCC strain), Gram-negative (control), Table 3.
Where [3] appears, read: Bifidobacterium breve, Bi. Breve, Strain no. 3967 (ATCC strain), Table 3.
The mark [4] stands for this setting: Bi. Longum, Strain no. 3968 (ATCC strain), Table 3.
The mark [5] stands for this setting: Eu. Lentum, Strain no. 1274 (ATCC strain), Table 3.
[6] abbreviates: C. diff., Strain no. 3580, Table 3.
[7] abbreviates: C. diff., Strain no. 3581, Table 3.
Setting [8] is: C. diff., Strain no. 3582, Table 3.
[9] abbreviates: C. diff., Strain no. 3584, Table 3.
The mark [10] stands for this setting: C. diff., Strain no. 3585, Table 3.
[11] abbreviates: C. diff., Strain no. 3586, Table 3.
Where [12] appears, read: C. diff., Strain no. 3587, Table 3.
[13] abbreviates: C. diff., Strain no. 3588, Table 3.
Where [14] appears, read: C. diff., Strain no. 3589, Table 3.
Where [15] appears, read: C. diff., Strain no. 4381 (ATCC strain), Table 3.
Where [16] appears, read: Ba. fragilis, Micromyx Number 0123 (ATCC strain), Gram negative, Table 1.
Where [17] appears, read: Bifidobacterium, Bi. brevi, Micromyx Number 3967, Table 1.
Where [18] appears, read: Bi. longum, Micromyx Number 3968, Table 1.
Where [19] appears, read: E. lentum, Micromyx Number 1274, Table 1.
The mark [20] stands for this setting: C. difficile, Micromyx Number 1209, Table 1.
Where [21] appears, read: C. difficile, Micromyx Number 3579, Table 1.
Where [22] appears, read: C. difficile, Micromyx Number 3580, Table 1.
Setting [23] is: C. difficile, Micromyx Number 3581, Table 1.
The mark [24] stands for this setting: C. difficile, Micromyx Number 3582, Table 1.
The mark [25] stands for this setting: C. difficile, Micromyx Number 3584, Table 1.
[26] abbreviates: C. difficile, Micromyx Number 3585, Table 1.
[27] abbreviates: C. difficile, Micromyx Number 3586, Table 1.
Where [28] appears, read: C. difficile, Micromyx Number 3587, Table 1.
Where [29] appears, read: C. difficile, Micromyx Number 3588, Table 1.
Setting [30] is: C. difficile, Micromyx Number 3589, Table 1.
The mark [31] stands for this setting: C. difficile, Micromyx Number 3590, Table 1.
[32] abbreviates: C. difficile, Micromyx Number 3591, Table 1.
[33] abbreviates: C. difficile, Micromyx Number 3593, Table 1.
The mark [34] stands for this setting: C. difficile, Micromyx Number 3594, Table 1.
Where [35] appears, read: C. difficile, Micromyx Number 3595, Table 1.
Where [36] appears, read: C. difficile, Micromyx Number 4381 (ATCC strain), Table 1.

`Cl.O=c1cc(NCc2ccc(Cl)c(Cl)c2)[nH]c(=O)n1CCOCCN1CCOCC1` [Compound 240D]: the MIC was more than 32 µg/mL with L. casei (setting [1]); more than 32 µg/mL against Ba. fragilis (setting [2]); 16 µg/mL in the assay on L. acidophilus (Strain no. 0681, Table 3); more than 32 µg/mL against Bi. brevi (setting [3]); more than 32 µg/mL in the assay on Bi. longum (setting [4]); more than 32 µg/mL in the assay with E. lentum (setting [5]). Moreover, the minimum inhibitory concentration (MIC) amounted to 32 µg/mL with C. difficile (setting [6]); 8 µg/mL in the assay on C. difficile (setting [7]); 32 µg/mL in the assay with C. difficile (setting [8]); 8 µg/mL in the assay with C. difficile (setting [9]); 16 µg/mL in the assay on C. difficile (setting [10]); 8 µg/mL in the assay on C. difficile (setting [11]). Also, the MIC in the assay with C. difficile (setting [12]) was 16 µg/mL; in the assay with C. difficile (setting [13]), 2 µg/mL; in the assay with C. difficile (setting [14]) it was 16 µg/mL; in the assay on C. difficile (setting [15]) it was 8 µg/mL.

As to `CCc1cc(Nc2nc3ncn(CCCCCOC)c3c(=O)[nH]2)ccc1C` [Compound 315C], the MIC against L. casei (Micromyx Number 1722, Table 1) is 32 µg/mL (≈ 86.6 µM); with Ba. fragilis (setting [16]), more than 32 µg/mL; with L. acidophilus (Micromyx Number 0681, Table 1), 16 µg/mL (≈ 43.3 µM); with Bi. brevi (setting [17]), more than 32 µg/mL; in the assay with Bi. longum (setting [18]) it was more than 32 µg/mL; in the assay on E. lentum (setting [19]), more than 32 µg/mL. Further, the MIC with C. difficile (setting [20]) is 16 µg/mL (≈ 43.3 µM); with C. difficile (setting [21]), 16 µg/mL (≈ 43.3 µM); in the assay with C. difficile (setting [22]), 8 µg/mL (≈ 21.7 µM); with C. difficile (setting [23]), 8 µg/mL (≈ 21.7 µM); in the assay with C. difficile (setting [24]), more than 32 µg/mL; in the assay with C. difficile (setting [25]) it was 8 µg/mL (≈ 21.7 µM). In addition, the MIC came out at 16 µg/mL (≈ 43.3 µM) with C. difficile (setting [26]); 8 µg/mL (≈ 21.7 µM) in the assay on C. difficile (setting [27]); 8 µg/mL (≈ 21.7 µM) in the assay on C. difficile (setting [28]); 4 µg/mL (≈ 10.8 µM) with C. difficile (setting [29]); 16 µg/mL (≈ 43.3 µM) with C. difficile (setting [30]); 8 µg/mL (≈ 21.7 µM) in the assay on C. difficile (setting [31]). Besides, the MIC in the assay on C. difficile (setting [32]) was 8 µg/mL (≈ 21.7 µM); in the assay on C. difficile (setting [33]), 16 µg/mL (≈ 43.3 µM); in the assay with C. difficile (setting [34]) it was 8 µg/mL (≈ 21.7 µM); in the assay with C. difficile (setting [35]), 8 µg/mL (≈ 21.7 µM); in the assay on C. difficile (setting [36]), 8 µg/mL (≈ 21.7 µM).

Take `CC(C)C(=O)OCCCCCn1cnc2nc(NCc3ccc(Cl)c(Cl)c3)[nH]c(=O)c21` [Compound 332E]: the minimum inhibitory concentration (MIC) in the assay on L. casei (Micromyx Number 1722, Table 1) was more than 32 µg/mL; in the assay with Ba. fragilis (B. fragilis, Micromyx Number 0123 (ATCC strain), Table 2) it was more than 32 µg/mL; in the assay on Ba. fragilis (setting [16]), more than 32 µg/mL; with L. acidophilus (Micromyx Number 0681, Table 1), 8 µg/mL (≈ 17.2 µM); with Bi. brevi (setting [17]), 32 µg/mL (≈ 68.6 µM); with Bi. longum (setting [18]), more than 32 µg/mL. The minimal inhibitory concentration (MIC) turned out to be 32 µg/mL (≈ 68.6 µM) in the assay with E. lentum (setting [19]); 4 µg/mL (≈ 8.58 µM) with C. difficile (C. diff., Micromyx Number 3579, Table 2); 4 µg/mL (≈ 8.58 µM) with C. difficile (C. diff., Micromyx Number 3580, Table 2); 2 µg/mL (≈ 4.29 µM) in the assay on C. difficile (C. diff., Micromyx Number 3581, Table 2); 4 µg/mL (≈ 8.58 µM) in the assay with C. difficile (C. diff., Micromyx Number 3582 (ATCC strain), Table 2); 4 µg/mL (≈ 8.58 µM) in the assay on C. difficile (setting [20]). Also, the minimal inhibitory concentration (MIC) with C. difficile (setting [21]) worked out at 4 µg/mL (≈ 8.58 µM); in the assay on C. difficile (setting [22]), 4 µg/mL (≈ 8.58 µM); in the assay on C. difficile (setting [23]), 4 µg/mL (≈ 8.58 µM); in the assay on C. difficile (setting [24]) it was 16 µg/mL (≈ 34.3 µM); in the assay with C. difficile (setting [25]) it was 2 µg/mL (≈ 4.29 µM); in the assay on C. difficile (setting [26]) it was 4 µg/mL (≈ 8.58 µM). Also, the minimal inhibitory concentration (MIC) was found to be 2 µg/mL (≈ 4.29 µM) with C. difficile (setting [27]); 4 µg/mL (≈ 8.58 µM) with C. difficile (setting [28]); 1 µg/mL (≈ 2.14 µM) with C. difficile (setting [29]); 4 µg/mL (≈ 8.58 µM) in the assay on C. difficile (setting [30]); 4 µg/mL (≈ 8.58 µM) in the assay on C. difficile (setting [31]); 4 µg/mL (≈ 8.58 µM) in the assay on C. difficile (setting [32]). The minimal inhibitory concentration (MIC) turned out to be 4 µg/mL (≈ 8.58 µM) in the assay on C. difficile (setting [33]), 4 µg/mL (≈ 8.58 µM) with C. difficile (setting [34]), 4 µg/mL (≈ 8.58 µM) in the assay on C. difficile (setting [35]) and 2 µg/mL (≈ 4.29 µM) in the assay with C. difficile (setting [36]). The “potency and selectivity against C. diff. versus other Gram-positive anaerobes (in words)” value in the assay on C. difficile (summary of MIC panels, Tables 1 and 3) was “most potent and selective”.

As to `O=c1[nH]c(NCc2ccc(Cl)c(Cl)c2)nc2ncn(CCOCCN3CCOCC3)c12` [Compound 360A], the MIC in the assay on L. casei (setting [1]) is more than 32 µg/mL; in the assay on Ba. fragilis (setting [2]), more than 32 µg/mL; in the assay on L. acidophilus (Strain no. 0681, Table 3) it was 16 µg/mL (≈ 34.2 µM); in the assay with Bi. brevi (setting [3]), more than 32 µg/mL; in the assay with Bi. longum (setting [4]) it was more than 32 µg/mL; in the assay on E. lentum (setting [5]), more than 32 µg/mL. Also, the MIC was found to be 16 µg/mL (≈ 34.2 µM) in the assay on C. difficile (setting [6]); 8 µg/mL (≈ 17.1 µM) in the assay with C. difficile (setting [7]); 16 µg/mL (≈ 34.2 µM) with C. difficile (setting [8]); 4 µg/mL (≈ 8.56 µM) with C. difficile (setting [9]); 16 µg/mL (≈ 34.2 µM) in the assay on C. difficile (setting [10]); 4 µg/mL (≈ 8.56 µM) with C. difficile (setting [11]). Further, the MIC was 8 µg/mL (≈ 17.1 µM) with C. difficile (setting [12]), 1 µg/mL (≈ 2.14 µM) in the assay on C. difficile (setting [13]), 16 µg/mL (≈ 34.2 µM) in the assay on C. difficile (setting [14]) and 8 µg/mL (≈ 17.1 µM) with C. difficile (setting [15]).
